Data: paper PMC9555310, “Novel inhibitors and activity-based probes targeting serine proteases” (Frontiers in Chemistry, 2022)
Where “and” joins values, the source holds several entries; their conditions need not be identical. Equal entries are not always repeated.

Target: T1, chymotrypsin (Bos taurus, UniProt P00766)
T1 construct: purchased Sigma-Aldrich (supplement); Calbiochem; host or cells: bovine pancreas
Assay: Irreversible inhibition kinetics of chymotrypsin (fluorogenic substrate progress curves)
Format: biochemical, bovine
Procedure: A range of inhibitor concentrations were prepared from a 10 mM stock solution of the test compounds (NAP533, NAP559, NAP800, NAP830, NAP849, and NAP962) in N, N-dimethylformamide (DMF). Recombinant protease activities were assayed using the cognate fluorogenic substrates as follows: trypsin (Z-Gly-Gly-Arg-NHMec), thrombin (Boc-Val-Pro-Arg-NHMec), plasmin (Boc-Val-Leu-Lys-NHMec), human neutrophil elastase (MeO-Succinyl-Ala-Ala-Pro-Val-NHMec), and chymotrypsin (Succinyl-Ala-Ala-Pro-Phe-NHMec). Each substrate was used at a final concentration of 50 μM, in the appropriate buffer for each protease. All inhibition assays were performed in microtiter plates maintained at 37°C in a final volume of 100 μL. The reaction was initiated by the addition of each protease (approx. 0.01 μg/well) and the rate of substrate hydrolysis was recorded continuously at 37°C, over a 60 min period, by measuring the rate of increase in fluorescence (at λex 360 nm, λem 480 nm) using a FLUOstar Optima microplate reader (BMG Labtech).
The resultant inhibition progress curves obtained for each inhibitor were analyzed by the kinetic models developed by [Tian and Tsou (1982)] and [Walker and Elmore (1984)], for irreversible inhibitors, with curve fitting being achieved using GraFit (Erithacus Software), as described previously ([Ferguson et al., 2016]).
FIGURE 4 Progress curves for (A), chymotrypsin-catalysed hydrolysis of Succinyl-Ala-Ala-Pro-Phe-NHMec, in the presence of varying concentrations of NAP849. (B), NE-catalysed hydrolysis of MeO-succinyl-Ala-Ala-Pro-Val-NHMec, in the presence of varying concentrations of NAP800. (C) Trypsin-catalysed of Z-Gly-Gly-Arg-NHMec, in the presence of NAP830. (D) Plasmin-catalysed hydrolysis of Boc-Val-Leu-Lys-NHMec, in the presence of varying concentrations of NAP962. Assays were carried out in PBS, pH 7.4, at 37°C, in the presence of a range of inhibitor concentrations (0.25–50 μM) and a fixed concentration (50 μM) of the appropriate substrate for each protease.
The “product progress” curves for substrate hydrolysis in the presence of an inhibitor (Figure 4) are indicative of the action of irreversible inhibitors operating through the kinetic scheme illustrated in Figure 6. In this scheme, the formation of the reversible enzyme–inhibitor complex (EI) is zcharacterized by the inhibitor constant K i. This is converted into the covalent/irreversible complex (E-I) characterized by a first-order rate constant k 3. The overall second-order rate constant for the inactivation of E by I is given by the ratio k 3/K i ([Walker and Elmore, 1984]; [Tsou, 1988]). […]
Protease inactivation by each of the compounds under study was evaluated using a fluorogenic enzyme assays. […]

## O=C(CCCCC1SCC2NC(=O)NC21)NCCCOCCOCCOCCCNC(=O)CNC(=O)CNC(=O)CN(Cc1ccccc1)C(=O)ON1C(=O)CCC1=O (stereo not drawn) [NAP849, Succinimidoyl-CO-NPhe-Gly-Gly-PEG-Biotin]
Succinyl-Ala-Ala-Pro-Phe-NHMec 50 μM, PBS pH 7.4, 37°C, mean ± SD (n=3)
  Ki: 890 nM
first-order rate constant, PBS pH 7.4, 37°C, mean ± SD (n=3)
  k 3: 0.85 (± 0.29) min^−1
Fold greater than QUBCL1
  second-order rate constant relative to the analogous phenylalanine diphenyl phosphonate QUBCL1: approximately ten-fold
second-order rate constant of inactivation, PBS pH 7.4, 37°C, mean ± SD (n=3)
  k 3 / K i: 1.28 × 10^6 M^−1 min^−1 and 1.28 (± 0.44) × 10^6 M^−1 min^−1
